System: U87 cells
Assay: Comparison of peptide variants by crystal violet staining and light microscopy
Conditions: U87 cells; 7.5, 10, 15, 20 and 25 µg/ml; 3 hours incubation
Excerpt: The sizes of the resulting in silico peptides varied from 10 to 30 amino acids. In order to facilitate their cellular internalisation, a TAT-HIV sequence was attached to the C-terminal ends. All peptides were […]. The peptide library was produced by Cambridge Peptides (Cambridge, UK). The peptides were then screened with the MTT (3-(4,5-dimethylthiazol-2-yl)-2,5-diphenyltetrazolium bromide) assay on U87 human glioma cells. Cellular morphology after peptide exposure was assessed by crystal violet staining and light microscopy. All experiments were performed in triplicate.
To increase the stability of the peptide, two further sub-formulations of the original formula (L-aa, containing only L-amino acids) were created: D-aa (retro inversed, (ri)), a peptide comprised of a backward sequence of the original in silico formula, yet made up solely of D-amino acids and an analogue peptide to original in silico peptide formula, comprised of D-amino acids. D-amino acids are highly resistant to protease mediated degradation and have a low immunogenic response. The respective peptide variants were tested in the following concentrations: 7.5, 10, 15, 20 and 25 µg/ml and incubated for 3 hours.

Ac-YGRKKRRQRRRGKTLRVAKAIYKRYIE-NH2
cytotoxic effect / potency by crystal violet staining: cytotoxic effect

Source: article PMC4104761, “Identification of a novel lytic peptide for the treatment of solid tumours” (Genes & Cancer, 2014)
